Data from patent publication US20230021483A1, “[…] […] METHOD AND CLASSIFICATION OF PHARMACEUTICAL COMPONENTS BY USING TRANSCRIPTOMES” (National Institutes of Biomedical Innovation, Health and …, priority 2016, published 2023).

What was measured:
[1] = tested on: liver (LV); test: Whole organ transcriptome (GeneChip microarray) of liver 6 h after adjuvant administration: sDEGs, hierarchical clustering; type: in vivo, C57BL/6 mice; conditions: liver; as to adjuvant group (cluster) in LV: key: G1 (interferon signaling); G2 (metabolism of lipids and lipoproteins); G3 (response to stress); G4 (response to wounding); G5 (phosphate-containing compound metabolic process); G6 (phagosome)
[2] = tested on: adjuvant-associated biological themes in LV, SP, LN; conditions: LV, ID
Summary of the method: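 Enrichment score S sums −log(p) over consensus themes whose names contain a pre-selected adjuvant-associated term such as "stress" or "cytokine". Consensus requires a theme in all three mice of a group, p<0.05. Themes come from TargetMine analysis of genes with eij/ei(c)>2.0, Fisher's exact test, Holm-Bonferroni-corrected.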

Nc1nc2c(ncn2[C@@H]2O[C@@H]3COP(=O)(O)O[C@H]4[C@@H](O)[C@H](n5cnc6c(N)ncnc65)O[C@@H]4COP(=O)(O)O[C@@H]2[C@@H]3O)c(=O)[nH]1 [cGAMP, Cyclic [G(2′,5′)pA(3′,5′)p]]
adjuvant group (cluster) in LV ([1]; hierarchical clustering): G1
Number of gene probes with statistically significant changes (sDEGs), LV, Down ([1]; i.d. administration, fold change <0.667, p<0.01, customized PA call=1, 6 h after adjuvant): 248
Number of gene probes with statistically significant changes (sDEGs), LV, Up ([1]; i.d. administration, fold change >1.5, p<0.01, customized PA call=1, 6 h after adjuvant): 841
GO annotation: Cytokine-cytokine receptor interaction (Term: cytokine) [2]: 5.57
GO annotation: Cytokine-cytokine receptor interaction|Endocytosis (Term: cytokine) [2]: 24.6
GO annotation: NF-kappa B signaling pathway (Term: NF-kappa B signaling pathway) [2]: 4.86
GO annotation: TNF signaling pathway (Term: TNF signaling pathway) [2]: 27.6
GO annotation: activation of immune response (Term: immune response) [2]: 12.6
GO annotation: activation of innate immune response (Term: innate immune response) [2]: 16.9
GO annotation: acute inflammatory response (Term: inflammatory response) [2]: 0
GO annotation: adaptive immune response (Term: adaptive immune response) [2]: 0
GO annotation: adaptive immune response based on somatic recombination of immune receptors built from immunoglobulin superfamily domains (Term: adaptive immune response) [2]: 3.78
GO annotation: apoptotic process (Term: apoptosis) [2]: 4.46
GO annotation: apoptotic signaling pathway (Term: apoptosis) [2]: 0
GO annotation: cell chemotaxis (Term: chemotaxis) [2]: 4.4
GO annotation: cell death (Term: cell death) [2]: 10.2
GO annotation: cell migration (Term: migration) [2]: 0
GO annotation: cellular response to cytokine stimulus (Term: cytokine) [2]: 32.9
GO annotation: cellular response to interferon-alpha (Term: IFN alpha) [2]: 6.72
GO annotation: cellular response to stress (Term: stress) [2]: 0
GO annotation: chemokine production (Term: chemokine) [2]: 0
GO annotation: chemokine-mediated signaling pathway (Term: chemokine) [2]: 0
GO annotation: chemotaxis (Term: chemotaxis) [2]: 0
GO annotation: cytokine biosynthetic process (Term: cytokine) [2]: 6.84
GO annotation: cytokine metabolic process (Term: cytokine) [2]: 8.21
GO annotation: cytokine production (Term: cytokine) [2]: 17.4
GO annotation: cytokine secretion (Term: cytokine) [2]: 0
GO annotation: cytokine-mediated signaling pathway (Term: cytokine) [2]: 16.4
GO annotation: death (Term: cell death) [2]: 4.77
GO annotation: defense response (Term: defense response) [2]: 62.7
GO annotation: defense response to Gram-positive bacterium (Term: defense response) [2]: 0
GO annotation: defense response to bacterium (Term: defense response) [2]: 8.38
GO annotation: defense response to other organism (Term: defense response) [2]: 37
GO annotation: defense response to protozoan (Term: defense response) [2]: 4.37
GO annotation: defense response to virus (Term: defense response) [2]: 19.8
GO annotation: granulocyte chemotaxis (Term: chemotaxis) [2]: 0
GO annotation: granulocyte migration (Term: migration) [2]: 0
GO annotation: immune response (Term: immune response) [2]: 42.2
GO annotation: immune response-activating signal transduction (Term: immune response) [2]: 14.1
GO annotation: immune response-regulating signaling pathway (Term: immune response) [2]: 17.6
GO annotation: inflammatory response (Term: inflammatory response) [2]: 11.5
GO annotation: innate immune response (Term: innate immune response) [2]: 31.4
GO annotation: innate immune response-activating signal transduction (Term: innate immune response) [2]: 16.2
GO annotation: interferon-alpha production (Term: IFN alpha) [2]: 3.79
GO annotation: intrinsic apoptotic signaling pathway (Term: apoptosis) [2]: 0
GO annotation: leukocyte chemotaxis (Term: chemotaxis) [2]: 0
GO annotation: leukocyte migration (Term: migration) [2]: 0
GO annotation: leukocyte migration involved in inflammatory response (Term: inflammatory response) [2]: 0
GO annotation: lymphocyte chemotaxis (Term: chemotaxis) [2]: 0
GO annotation: lymphocyte migration (Term: migration) [2]: 0
GO annotation: myeloid leukocyte migration (Term: migration) [2]: 0
GO annotation: negative regulation of apoptotic process (Term: apoptosis) [2]: 0
GO annotation: negative regulation of cell death (Term: cell death) [2]: 0
GO annotation: negative regulation of cytokine production (Term: cytokine) [2]: 3.21
GO annotation: negative regulation of defense response (Term: defense response) [2]: 0
GO annotation: negative regulation of immune response (Term: immune response) [2]: 0
GO annotation: negative regulation of innate immune response (Term: innate immune response) [2]: 0
GO annotation: negative regulation of programmed cell death (Term: cell death) [2]: 0
GO annotation: neutrophil chemotaxis (Term: chemotaxis) [2]: 0
GO annotation: neutrophil migration (Term: migration) [2]: 0
GO annotation: positive regulation of adaptive immune response (Term: adaptive immune response) [2]: 0
GO annotation: positive regulation of apoptotic process (Term: apoptosis) [2]: 0
GO annotation: positive regulation of cell death (Term: cell death) [2]: 0
GO annotation: positive regulation of cell migration (Term: migration) [2]: 0
GO annotation: positive regulation of chemokine production (Term: chemokine) [2]: 0
GO annotation: positive regulation of chemotaxis (Term: chemotaxis) [2]: 0
GO annotation: positive regulation of cytokine biosynthetic process (Term: cytokine) [2]: 0
GO annotation: positive regulation of cytokine production (Term: cytokine) [2]: 11.1
GO annotation: positive regulation of defense response (Term: defense response) [2]: 24.7
GO annotation: positive regulation of immune response (Term: immune response) [2]: 15.7
GO annotation: positive regulation of inflammatory response (Term: inflammatory response) [2]: 0
GO annotation: positive regulation of innate immune response (Term: innate immune response) [2]: 17.2
GO annotation: positive regulation of interferon-alpha production (Term: IFN alpha) [2]: 4.81
GO annotation: positive regulation of leukocyte chemotaxis (Term: chemotaxis) [2]: 0
GO annotation: positive regulation of leukocyte migration (Term: migration) [2]: 0
GO annotation: positive regulation of programmed cell death (Term: cell death) [2]: 0
GO annotation: positive regulation of response to wounding (Term: wounding) [2]: 0
GO annotation: positive regulation of tumor necrosis factor superfamily cytokine (Term: cytokine) [2]: 0
GO annotation: production of molecular mediator of immune response (Term: immune response) [2]: 0
GO annotation: programmed cell death (Term: cell death) [2]: 6.49
GO annotation: regulation of adaptive immune response (Term: adaptive immune response) [2]: 0
GO annotation: regulation of adaptive immune response based on somatic recombination of immune receptors built from immunoglobulin superfamily domains (Term: adaptive immune response) [2]: 0
GO annotation: regulation of apoptotic process (Term: apoptosis) [2]: 4.63
GO annotation: regulation of apoptotic signaling pathway (Term: apoptosis) [2]: 0
GO annotation: regulation of cell death (Term: cell death) [2]: 3.82
GO annotation: regulation of cell migration (Term: migration) [2]: 0
GO annotation: regulation of chemokine production (Term: chemokine) [2]: 0
GO annotation: regulation of chemotaxis (Term: chemotaxis) [2]: 0
GO annotation: regulation of cytokine biosynthetic process (Term: cytokine) [2]: 0
GO annotation: regulation of cytokine production (Term: cytokine) [2]: 19.1
GO annotation: regulation of defense response (Term: defense response) [2]: 37.5
GO annotation: regulation of defense response to virus (Term: defense response) [2]: 0
GO annotation: regulation of defense response to virus by host (Term: defense response) [2]: 0
GO annotation: regulation of immune response (Term: immune response) [2]: 20.7
GO annotation: regulation of inflammatory response (Term: inflammatory response) [2]: 0
GO annotation: regulation of innate immune response (Term: innate immune response) [2]: 24.8
GO annotation: regulation of interferon-alpha production (Term: IFN alpha) [2]: 4.28
GO annotation: regulation of intrinsic apoptotic signaling pathway (Term: apoptosis) [2]: 0
GO annotation: regulation of leukocyte chemotaxis (Term: chemotaxis) [2]: 0
GO annotation: regulation of leukocyte migration (Term: migration) [2]: 0
GO annotation: regulation of programmed cell death (Term: cell death) [2]: 4.93
GO annotation: regulation of response to stress (Term: stress) [2]: 25.3
GO annotation: regulation of response to wounding (Term: wounding) [2]: 3.31
GO annotation: regulation of tumor necrosis factor superfamily cytokine production (Term: cytokine) [2]: 0
GO annotation: response to cytokine (Term: cytokine) [2]: 45.9
GO annotation: response to interferon-alpha (Term: IFN alpha) [2]: 14.8
GO annotation: response to stress (Term: stress) [2]: 44.6
GO annotation: response to wounding (Term: wounding) [2]: 0
GO annotation: taxis (Term: chemotaxis) [2]: 0
GO annotation: tumor necrosis factor superfamily cytokine production (Term: cytokine) [2]: 0
IFN beta: cellular response to interferon-beta [2]: 17.6
IFN beta: interferon-beta production [2]: 5.22
IFN beta: positive regulation of interferon-beta production [2]: 9.2
IFN beta: regulation of interferon-beta production [2]: 5.76
IFN beta: response to interferon-beta [2]: 23.5
IFN gamma: cellular response to interferon-gamma [2]: 7.44
IFN gamma: interferon-gamma production [2]: 0
IFN gamma: regulation of interferon-gamma production [2]: 0
IFN gamma: response to interferon-gamma [2]: 10
interleukin-6: interleukin-6 production [2]: 0
interleukin-6: positive regulation of interleukin-6 production [2]: 0
interleukin-6: regulation of interleukin-6 production [2]: 0
interleukin-12: interleukin-12 production [2]: 0
interleukin-12: positive regulation of interleukin-12 production [2]: 0
interleukin-12: regulation of interleukin-12 production [2]: 0
